# Test results taken from patent EP4578856A1, “HETEROCYCLIC COMPOUND” (Ubience Inc., priority 2022, dated 2024).
# Target: FAK protein (Homo sapiens, UniProt Q05397)
# Assay: Degradation inducing activity of FAK protein in PA-1 cells, Western blotting (Simple Western JESS)
# Type: cell-based
# Design: endogenous in cells; host or cells: PA-1 (ATCC CRL-1572)
# Details: at 10 µM, 24 hours
# Protocol: In vitro degradation inducing activity of FAK protein of compounds of Examples was evaluated by Western Blotting (WB).
# By a test compound, 10 mM DMSO solution was prepared, which was used as a 10 µM test compound solution. Further, the solution was diluted 10-fold with DMSO to prepare a 1 mM solution, which was used as a 1 µM test compound solution.
# PA-1 cells (ATCC: CRL-1572, Lot: 70055709) were cultured in Eagle's Minimum Essential Medium supplemented with 10% FBS and 1% Penicillin/Streptomycin. The PA-1 cells seeded in a 24 well plate at 200,000 cells/well/1 mL were cultured for 24 hours, and then 1 µL of DMSO or a test compound solution was added thereto and treatment was performed for 24 hours. Cells were harvested and lysed for 20 minutes on ice using RIPA lysis buffer (Sigma, Cat#R0278) supplemented with protease inhibitor cocktail (Sigma, Cat#P8340; Roche, Cat#P11873580001), and phosphatase inhibitor cocktail (Sigma, Cat#P5726, P0044). The lysate was sonicated (15 seconds, amplitude 30%, 1 cycle) and then centrifuged at 12500 rpm for 15 minutes at 4°C. The protein concentration was determined by BCA assay kit (Thermo Fisher Scientific, Cat#23225).
# The western blotting was performed using Simple Western JESS (protein simple). A cell lysis sample (protein amount; about 2 µg) was loaded on a plate of Simple Western JESS, and the expression level of […] was detected using a 12-230 kDa Wes Separation Module (Protein simple, Cat#SM-WO04), an Anti-Rabbit Detection Module for Wes (Protein simple, Cat#DM-001), and a Total Protein Detection Module for Wes (Protein simple, Cat#DM-TP01). As the primary antibody, a material obtained by diluting FAK Rabbit mAb (Cell Signaling Technology, Cat#3285) at 1:100 was used, and as the secondary antibody, a material obtained by diluting HRP-labeled anti-rabbit IgG antibody (Cell Signaling Technology, Cat#7074S) at 1:250 was used. The expression level of the target protein was standardized using the total protein amount loaded as a reference. The standardized expression level data of the control (DMSO) was taken as 100%, and the degradation rate (%) was calculated from the average standardized expression level data of the test compounds (compounds of Examples 109 to 128). All analysis steps, such as data detection and analysis, are fully automated.
# FAK protein, sequence (Q05397 whole entry): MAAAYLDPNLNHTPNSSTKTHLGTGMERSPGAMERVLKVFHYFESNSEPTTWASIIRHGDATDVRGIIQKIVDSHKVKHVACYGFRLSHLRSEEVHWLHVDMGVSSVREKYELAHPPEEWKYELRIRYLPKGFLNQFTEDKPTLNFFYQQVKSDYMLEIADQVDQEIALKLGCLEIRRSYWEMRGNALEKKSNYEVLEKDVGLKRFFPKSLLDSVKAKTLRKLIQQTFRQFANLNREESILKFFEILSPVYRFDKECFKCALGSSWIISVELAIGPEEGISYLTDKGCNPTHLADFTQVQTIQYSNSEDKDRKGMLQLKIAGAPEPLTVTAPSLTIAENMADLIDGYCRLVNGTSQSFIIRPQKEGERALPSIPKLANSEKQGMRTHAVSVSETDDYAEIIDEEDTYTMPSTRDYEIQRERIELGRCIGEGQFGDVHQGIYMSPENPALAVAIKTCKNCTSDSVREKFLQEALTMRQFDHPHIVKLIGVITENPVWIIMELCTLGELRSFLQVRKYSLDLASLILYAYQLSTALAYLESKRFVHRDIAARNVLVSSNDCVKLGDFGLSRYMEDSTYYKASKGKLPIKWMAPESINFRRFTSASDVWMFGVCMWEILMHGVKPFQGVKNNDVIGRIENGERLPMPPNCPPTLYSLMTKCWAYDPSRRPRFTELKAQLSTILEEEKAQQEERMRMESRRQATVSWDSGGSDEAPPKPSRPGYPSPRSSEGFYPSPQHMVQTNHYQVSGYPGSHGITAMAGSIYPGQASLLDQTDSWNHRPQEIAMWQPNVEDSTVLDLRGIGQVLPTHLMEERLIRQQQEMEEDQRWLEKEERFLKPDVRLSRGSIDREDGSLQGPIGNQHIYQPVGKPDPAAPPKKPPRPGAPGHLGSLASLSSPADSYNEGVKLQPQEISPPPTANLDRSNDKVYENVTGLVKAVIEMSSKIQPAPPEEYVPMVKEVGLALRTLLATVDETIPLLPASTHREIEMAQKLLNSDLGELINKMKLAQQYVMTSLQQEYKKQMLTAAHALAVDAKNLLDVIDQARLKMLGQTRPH
row,FAK protein degradation rate [%],Compound
1,≥ 75,"COC[C@H]1CN[C@H](C)CN1CC(=O)N1CC(C)(C)c2ncc(Cc3ccccc3OCCN3CCN(CC(=O)Nc4ccc(Nc5ncc(C(F)(F)F)c(NCc6cccc(S(C)(=O)=O)c6)n5)cc4)CC3)cc21 [Example 119, 2-(4-(2-(2-((1-(2-((2R,5R)-2-(Methoxymethyl)-5-methylpiperazin-1-yl)acetyl)-3,3-dimethyl-2,3-dihydro-1H-pyrrolo[3,2-b]pyridin-6-yl)methyl)phenoxy)ethyl)piperazin-1-yl)-N-(4-((4-((3-(methylsulfonyl)benzyl)amino)-5-(trifluoromethyl)pyrimidin-2-yl)amino)phenyl)acetamide]"
2,≥ 75,"COC[C@H]1CN[C@H](C)CN1CC(=O)N1CC(C)(C)c2ncc(Cc3cccc(OCCN4CCN(CC(=O)Nc5ccc(Nc6ncc(C(F)(F)F)c(NCc7cccc(S(C)(=O)=O)c7)n6)cc5)CC4)c3)cc21 [Example 124, 2-(4-(2-(3-((1-(2-((2R,5R)-2-(Methoxymethyl)-5-methylpiperazin-1-yl)acetyl)-3,3-dimethyl-2,3-dihydro-1H-pyrrolo[3,2-b]pyridin-6-yl)methyl)phenoxy)ethyl)piperazin-1-yl)-N-(4-((4-((3-(methylsulfonyl)benzyl)amino)-5-(trifluoromethyl)pyrimidin-2-yl)amino)phenyl)acetamide]"
3,≥ 75,"C[C@@H]1CN(CC(=O)N2CC(C)(C)c3ncc(Cc4ccc(F)cc4)cc32)[C@@H](CN(C)CCOCCOCC(=O)Nc2ccc(Nc3ncc(C(F)(F)F)c(NCc4cccc(S(C)(=O)=O)c4)n3)cc2)CN1 [Example 110, 2-(2-(2-((((2R,5R)-1-(2-(6-(4-fluorobenzyl)-3,3-dimethyl-2,3-dihydro-1H-pyrrolo[3,2-b]pyridin-1-yl)-2-oxoethyl)-5-methylpiperazin-2-yl)methyl) (methyl)amino)ethoxy)ethoxy)-N-(4-((4-((3-(methylsulfonyl)benzyl)amino)-5-(trifluoromethyl)pyrimidin-2-yl)amino)phenyl)acetamide]"
4,≥ 75,"C[C@@H]1CN(CC(=O)N2CC(C)(C)c3ncc(Cc4ccc(F)cc4)cc32)[C@@H](CN(C)CCOCCOCCOCCOCC(=O)Nc2ccc(Nc3ncc(C(F)(F)F)c(NCc4cccc(S(C)(=O)=O)c4)n3)cc2)CN1 [Example 112, 1-((2R,5R)-1-(2-(6-(4-Fluorobenzyl)-3,3-dimethyl-2,3-dihydro-1H-pyrrolo[3,2-b]pyridin-1-yl)-2-oxoethyl)-5-methylpiperazin-2-yl)-2-methyl-N-(4-((4-((3-(methylsulfonyl)benzyl)amino)-5-(trifluoromethyl)pyrimidin-2-yl)amino)phenyl)-5,8,11,14-tetraoxa-2-azahexadecan-16-amide]"

row,Compound,FAK protein degradation rate [%]
1,"2-(4-((6-(4-Fluorobenzyl)-1-(2-((2R,5R)-2-(methoxymethyl)-5-methylpiperazin-1-yl)acetyl)-3,3-dimethyl-2,3-dihydro-1H-pyrrolo[3,2-b]pyridin-5-yl)methyl)piperazin-1-yl)-N-(4-((4-((3-(methylsulfonyl)benzyl)amino)-5-(trifluoromethyl)pyrimidin-2-yl)amino)phenyl)acetamide [Example 114]",≥ 75
